Reference: US7129218B2, “Use of rhamnolipids in wound healing, treatment and prevention of gum disease and periodontal regeneration” (Paradigm Biomedical, Inc., priority 1999, dated 2006)

How the values were obtained:
[1] = test system: neonatal human keratinocyte cells; experiment: Caspase detection in neonatal human keratinocyte cells in GM medium (with serum); type: cell-based
Description: The procedure for caspase detection in neonatal human keratinocyte cells in GM* medium (with serum) treated with BAC-3 using fluorescence spectroscopy
The same procedure as described for keratinocyte cells in KGM, but with presence of serum (GM). Passage #3 cells were grown in KGM medium for 7 days with one medium change. Plates were irradiated with UVB light for 66 seconds (792 J/m^2)
Cells, at 80% confluence, were administered BAC-3 in GM at 100 μg/ml, 50 μg/ml, 10 μg/ml and 1 μg/ml concentrations. Medium was replaced every two days over the period of 6 days. On day 3, positive apoptosis control was established by irradiating cells with 792 J/m^2 UVB light and incubating them with 1 μg/ml FAS antibody. BAC-3 treated and control cells were harvested and cell densities were adjusted to 1×10^6 cells per ml with FM. 300 μl cell aliquots were labeled with FAM-VAD-FMK, fluorescent-tagged, irreversible caspase inhibitor. Unlabelled inhibitor was washed away with buffer and 100 μl aliquots were read at 485 nm excitation and 535 nm emission with fluorescence detector. Error bars indicate standard deviations.

[2] = test system: venous ulcer; experiment: Open wound healing in a patient with incurable venous ulcer; type: in vivo, human; settings: 1% BAC-3 ointment twice daily during 41 days
Description: The BAC-3 rhamnolipid was tested in the case of open wound healing, in a patient suffering around ten years from incurable venous ulcer. On the left leg, the patient had very thick layers of collagen with fibrotic lesions. […] Moreover, after treatment was finished, not only the collagen, but also the fibrotic lesions had disappeared as well. One year after the treatment, the treated skin lesions on the left leg appear normal, and all skin collagen and fibrotic layers had disappeared.

[3] = test system: incision wounds; experiment: Tensile strength of incision wounds (rats); type: in vivo, Sprague-Dawley rats; settings: 0.1% BAC-3; 21 days after wounding; p<0.05 by ANOVA; FIG. 3
Description: The wounding of animals was performed according to the Protocol for Animal Use and Care at the University of California-Davis (hereafter UC-Davis). The entire animal protocol required 70 Sprague-Dawley rats: 30 rats for incision wounds and 40 rats for burn wounds. Among them 36 rats were burned over 7% of their skin and 4 rats were burned over 15% of their skin. Incision wounds of whole skin and burn wounds were treated topically with 2 test doses of the pharmaceutical preparation of di-rhamnolipid BAC-3. Each dose contained a). 1%, and 0.1% of active di-rhamnolipid (BAC-3) in eucerin (eucerin=71.5 g Vaselinum album (Producer: D.E.A. Hamburg); 23.8 g Lanolinum (Producer I.O.I. Hamburg); 4.7 g Cholesterin (Producer: Solvay, Wiena, Austria); Water Number: 320); or b). 1%; 0.1% active rhamnolipid (BAC-3) with antiseptic (chlorhexidine hydrochloride-PLIVA-Zagreb). Eucerin with BAC-3 was administrated twice daily during healing. The same experiment had one control group without the treatment, and one control group which was treated with ointment+1% chlorhexidine hydrochloride. […]
Tensile Strength Determination. […] The tensile strength of healthy skin was measured in killed animals from each group.
Effect of BAC-3 on Tensile Strength of Incision Wounds (FIG. 3) with and without chlorhexidine hydrochloride. The tensile strength of incision wounds was measured 21 days after wounding. […]

[4] = test system: neonatal human keratinocyte cells; experiment: Caspase detection in neonatal human keratinocyte cells in KGM (serum free) medium; type: cell-based
Description: The procedure for caspase detection in neonatal human keratinocyte cells in KGM* (serum free) medium treated With BAC-3 using fluorescence spectroscopy
The same procedure as described for fibroblasts except different growth conditions were used (NHK97-45 passage #3 cell line was used). Neonatal human keratinocytes were without the presence of serum (KGM medium). Prior to treatment with BAC-3, passage #3 cells were grown in KGM medium for 7 days with one medium change (until 80% confluent). For preparing positive apoptosis control, plates were irradiated with UVB light for 66 seconds (792 J/m^2).
Cells, at 80% confluence, were administered BAC-3 in KGM at 50 μg/ml, 10 μg/ml, 1 μg/ml and 0.5 μg/ml concentrations. Medium was replaced every two days over the period of 6 days. On day 3, positive apoptosis control was established by irradiating cells with 792 J/m^2 UVB light and incubating them with 1 μg/ml FAS antibody. BAC-3 treated and control cells were harvested and cell densities were adjusted to 1×10^6 cells per ml with FM. 300 μl cell aliquots were labeled with FAM-VAD-FMK, fluorescent-tagged, irreversible caspase inhibitor. Unlabelled inhibitor was washed away with buffer and 100 μl aliquots were read at 485 nm excitation and 535 nm emission with fluorescence detector. Error bars indicate standard deviations.

## CCCCCCCC(CC(=O)O)OC(=O)CC(CCCCCCC)OC1OC(C)C(O)C(O)C1OC1OC(C)C(O)C(O)C1O [BAC-3, (α-L-rhamnopyranosyl-(1,2)-α-L-rhamnopyranosyl)-3-hyroxydecanoyl-3-hydroxydecanoic acid]
[1]; keratinocytes in GM with serum, 6 days, tested 100, 50, 10, 1 and 0.5 μg/ml
  optimal concentration for inhibiting apoptosis: 50 µg/mL
[1]; keratinocytes in GM, presence of serum
  effect on apoptosis (caspase enzyme activity): inhibited
[2]; after treatment and one year later
  collagen and fibrotic lesions after treatment: disappeared
[2]; one patient, venous ulcer, left leg
  patient's condition: significantly improved
[3]
  tensile strength of incision wounds vs corresponding vehicle: significantly lower
[4]; keratinocytes in KGM serum free, 6 days, tested 50, 10, 1 and 0.5 μg/ml
  optimal concentration for inducing apoptosis (caspase activity peak): 1 µg/mL
[4]; keratinocytes in KGM, higher concentrations of BAC-3 (detergent effect)
  mechanism of cell death at higher concentrations: cell necrosis
